# Values of other authors, collected in PMC10582684 (RSC Advances, 2023).
# Read-outs that look alike come from different tables or passages of the source.
# Columns and labels:
# [1] = literature comparison
# [2] = oligopeptides from ginkgo seed and bighead carp, high content of Pro
# [3] = tested on: ACE
# [4] = peptides from walnut protein with Lys in C-terminal tripeptide
compound,measurement,setting,value
O=C(O)CN(CCN(CC(=O)O)CC(=O)O)CC(=O)O [ethylenediamine tetraacetic acid],Chelating ability towards zinc ions,[1],57.17 mg/g
LSMSFPPF,Stability against gastrointestinal enzymic digestion (in words),[2],excellent stability
PKPP,Inhibiting ability on ACE (in words),[3]; [4],excellent inhibiting ability on ACE
PPKP,Inhibiting ability on ACE (in words),[3]; [4],excellent inhibiting ability on ACE
PPSEPTKL,Stability against gastrointestinal enzymic digestion (in words),[2],excellent stability
TGLL,Chelating ability towards zinc ions,[1],2.27 mg/g
VPKIPPP,Stability against gastrointestinal enzymic digestion (in words),[2],excellent stability
WNGPKGV,Inhibiting ability on ACE (in words),[3]; peptide from corn protein with Lys in C-terminal tripeptide,excellent inhibiting ability on ACE
YIRLHF,Inhibitory kinetics on ACE,[3]; peptide from bighead carp protein,competitive inhibitory kinetics
